Assay results published in ChEMBL document CHEMBL2321873, “1-(4-Phenylpiperazin-1-yl)-2-(1H-pyrazol-1-yl)ethanones as novel CCR1 antagonists” (Bioorg Med Chem Lett, 2013).
Active and inactive are the calls of the source. The calls are words filed in the database; no cut-off is given here.

How the values were obtained:
[1] = biological target: C-C chemokine receptor type 5 (Homo sapiens) (UniProt P51681); assay: Antagonist activity at CCR5 (unknown origin) assessed as inhibition of calcium flux at 10 uM; type: functional
[2] = system: Cytomegalovirus; assay: Antagonist activity at CMV US28 assessed as inhibition of calcium flux at 10 uM
[3] = biological target: T1, C-X-C chemokine receptor type 1 (Homo sapiens) (UniProt P25024); assay: Antagonist activity at CXCR1 (unknown origin) assessed as inhibition of calcium flux at 10 uM; type: functional
T1 sequence (whole entry): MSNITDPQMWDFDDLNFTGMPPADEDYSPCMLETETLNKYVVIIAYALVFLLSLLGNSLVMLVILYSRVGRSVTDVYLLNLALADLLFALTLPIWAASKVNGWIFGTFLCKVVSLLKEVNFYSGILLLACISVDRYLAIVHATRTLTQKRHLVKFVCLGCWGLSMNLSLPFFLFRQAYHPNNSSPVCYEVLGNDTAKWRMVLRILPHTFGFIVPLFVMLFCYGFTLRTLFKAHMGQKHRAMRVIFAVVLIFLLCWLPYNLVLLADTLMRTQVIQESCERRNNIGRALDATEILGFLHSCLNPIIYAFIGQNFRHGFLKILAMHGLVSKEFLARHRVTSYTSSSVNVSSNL

[4] = biological target: T2, C-C chemokine receptor type 9 (Homo sapiens) (UniProt P51686); assay: Antagonist activity at CCR9 (unknown origin) assessed as inhibition of chemotaxis at 10 uM
T2 sequence (whole entry): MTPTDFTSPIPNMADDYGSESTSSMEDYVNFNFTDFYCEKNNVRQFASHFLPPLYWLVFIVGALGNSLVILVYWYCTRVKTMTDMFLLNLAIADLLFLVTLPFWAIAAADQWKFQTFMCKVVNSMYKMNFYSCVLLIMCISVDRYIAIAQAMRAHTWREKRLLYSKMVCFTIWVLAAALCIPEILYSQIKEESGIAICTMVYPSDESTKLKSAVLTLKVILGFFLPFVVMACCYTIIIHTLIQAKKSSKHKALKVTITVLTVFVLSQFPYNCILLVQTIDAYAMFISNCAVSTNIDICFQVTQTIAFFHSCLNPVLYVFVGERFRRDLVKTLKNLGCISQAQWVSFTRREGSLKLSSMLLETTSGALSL

[5] = biological target: Cytochrome P450 2C9 (Homo sapiens, UniProt P11712); assay: Competitive inhibition of CYP2C9 (unknown origin); type: ADME
[6] = biological target: T3, CX3C chemokine receptor 1 (Homo sapiens) (UniProt P49238); assay: Antagonist activity at CX3CR1 (unknown origin) assessed as inhibition of chemotaxis at 10 uM
T3 sequence (whole entry): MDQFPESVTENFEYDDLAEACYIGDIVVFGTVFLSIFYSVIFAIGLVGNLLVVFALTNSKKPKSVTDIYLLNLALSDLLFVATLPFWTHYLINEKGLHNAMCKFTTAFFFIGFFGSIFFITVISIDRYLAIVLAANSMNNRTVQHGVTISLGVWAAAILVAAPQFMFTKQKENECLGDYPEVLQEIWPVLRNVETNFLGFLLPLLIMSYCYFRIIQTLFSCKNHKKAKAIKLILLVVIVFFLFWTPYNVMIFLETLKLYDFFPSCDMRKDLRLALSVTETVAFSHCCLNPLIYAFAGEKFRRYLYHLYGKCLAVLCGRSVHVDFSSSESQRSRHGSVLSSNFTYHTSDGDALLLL

[7] = biological target: C-C chemokine receptor type 2 (Homo sapiens) (UniProt P41597); assay: Antagonist activity at CCR2 (unknown origin) assessed as inhibition of chemotaxis at 10 uM
[8] = biological target: Cytochrome P450 2D6 (Homo sapiens, UniProt P10635); assay: Competitive inhibition of CYP2D6 (unknown origin); type: ADME
[9] = biological target: T4, C-C chemokine receptor type 3 (Homo sapiens) (UniProt P51677); assay: Antagonist activity at CCR3 (unknown origin) assessed as inhibition of calcium flux at 10 uM; type: functional
T4 sequence (whole entry): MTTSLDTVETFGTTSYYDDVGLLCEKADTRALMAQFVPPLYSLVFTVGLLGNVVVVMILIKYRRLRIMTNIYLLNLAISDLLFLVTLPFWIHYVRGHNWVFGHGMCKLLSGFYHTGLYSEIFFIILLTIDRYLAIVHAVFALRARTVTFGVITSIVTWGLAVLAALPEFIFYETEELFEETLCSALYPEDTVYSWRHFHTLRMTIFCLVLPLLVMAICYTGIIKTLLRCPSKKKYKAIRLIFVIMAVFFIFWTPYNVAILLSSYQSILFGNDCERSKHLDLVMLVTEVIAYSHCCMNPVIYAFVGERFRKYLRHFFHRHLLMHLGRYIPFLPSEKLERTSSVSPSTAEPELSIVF

[10] = biological target: Voltage-gated inwardly rectifying potassium channel KCNH2 (Homo sapiens, UniProt Q12809); assay: Binding affinity to human ERG by patch clamp assay
[11] = Half life in Beagle dog at 1 mg/kg, iv; type: ADME, organism-based, Canis lupus familiaris; set-up: dose 1 mg/kg, route intravenous; details: in vivo
[12] = biological target: T1, C-X-C chemokine receptor type 1 (Homo sapiens); assay: Antagonist activity at CXCR1 (unknown origin) assessed as inhibition of chemotaxis at 10 uM
[13] = system: Rattus norvegicus; assay: Toxicity in Sprague-Dawley rat assessed as effect on complete blood cell count at 70 to 360 mg/kg, po after 7 days; type: organism-based; set-up: dose 70-360 mg/kg, route oral; details: in vivo, 168 h
[14] = biological target: Cytochrome P450 1A2 (Homo sapiens, UniProt P05177); assay: Competitive inhibition of CYP1A2 (unknown origin); type: ADME
[15] = biological target: C-C chemokine receptor type 5 (Homo sapiens) (UniProt P51681); assay: Antagonist activity at CCR5 (unknown origin) assessed as inhibition of chemotaxis at 10 uM
[16] = biological target: T5, C-X-C chemokine receptor type 3 (Homo sapiens) (UniProt P49682); assay: Binding affinity to CXCR3 (unknown origin) at 10 uM by radioligand displacement assay
T5 sequence (whole entry): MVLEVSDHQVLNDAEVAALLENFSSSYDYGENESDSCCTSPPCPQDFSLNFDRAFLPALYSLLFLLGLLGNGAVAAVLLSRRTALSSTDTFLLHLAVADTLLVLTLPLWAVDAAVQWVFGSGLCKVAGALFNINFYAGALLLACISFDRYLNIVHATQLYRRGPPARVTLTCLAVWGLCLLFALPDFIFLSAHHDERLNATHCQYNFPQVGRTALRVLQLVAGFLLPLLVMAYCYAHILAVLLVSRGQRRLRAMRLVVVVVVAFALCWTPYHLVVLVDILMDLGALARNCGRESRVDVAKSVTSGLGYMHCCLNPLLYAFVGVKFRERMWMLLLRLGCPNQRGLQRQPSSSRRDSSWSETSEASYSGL

Chain of C-C chemokine receptor type 5 (Homo sapiens) (P51681 whole entry, looked up): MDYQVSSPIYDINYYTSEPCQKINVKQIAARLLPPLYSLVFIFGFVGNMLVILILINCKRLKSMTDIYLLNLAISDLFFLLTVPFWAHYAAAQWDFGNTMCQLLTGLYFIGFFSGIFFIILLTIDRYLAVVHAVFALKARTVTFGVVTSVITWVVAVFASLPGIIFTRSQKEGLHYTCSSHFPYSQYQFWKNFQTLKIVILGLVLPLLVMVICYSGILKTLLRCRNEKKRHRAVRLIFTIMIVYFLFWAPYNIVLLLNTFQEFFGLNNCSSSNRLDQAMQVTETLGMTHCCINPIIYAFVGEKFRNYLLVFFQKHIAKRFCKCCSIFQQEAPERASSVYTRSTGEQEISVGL
Chain of Voltage-gated inwardly rectifying potassium channel KCNH2 (Q12809 whole entry): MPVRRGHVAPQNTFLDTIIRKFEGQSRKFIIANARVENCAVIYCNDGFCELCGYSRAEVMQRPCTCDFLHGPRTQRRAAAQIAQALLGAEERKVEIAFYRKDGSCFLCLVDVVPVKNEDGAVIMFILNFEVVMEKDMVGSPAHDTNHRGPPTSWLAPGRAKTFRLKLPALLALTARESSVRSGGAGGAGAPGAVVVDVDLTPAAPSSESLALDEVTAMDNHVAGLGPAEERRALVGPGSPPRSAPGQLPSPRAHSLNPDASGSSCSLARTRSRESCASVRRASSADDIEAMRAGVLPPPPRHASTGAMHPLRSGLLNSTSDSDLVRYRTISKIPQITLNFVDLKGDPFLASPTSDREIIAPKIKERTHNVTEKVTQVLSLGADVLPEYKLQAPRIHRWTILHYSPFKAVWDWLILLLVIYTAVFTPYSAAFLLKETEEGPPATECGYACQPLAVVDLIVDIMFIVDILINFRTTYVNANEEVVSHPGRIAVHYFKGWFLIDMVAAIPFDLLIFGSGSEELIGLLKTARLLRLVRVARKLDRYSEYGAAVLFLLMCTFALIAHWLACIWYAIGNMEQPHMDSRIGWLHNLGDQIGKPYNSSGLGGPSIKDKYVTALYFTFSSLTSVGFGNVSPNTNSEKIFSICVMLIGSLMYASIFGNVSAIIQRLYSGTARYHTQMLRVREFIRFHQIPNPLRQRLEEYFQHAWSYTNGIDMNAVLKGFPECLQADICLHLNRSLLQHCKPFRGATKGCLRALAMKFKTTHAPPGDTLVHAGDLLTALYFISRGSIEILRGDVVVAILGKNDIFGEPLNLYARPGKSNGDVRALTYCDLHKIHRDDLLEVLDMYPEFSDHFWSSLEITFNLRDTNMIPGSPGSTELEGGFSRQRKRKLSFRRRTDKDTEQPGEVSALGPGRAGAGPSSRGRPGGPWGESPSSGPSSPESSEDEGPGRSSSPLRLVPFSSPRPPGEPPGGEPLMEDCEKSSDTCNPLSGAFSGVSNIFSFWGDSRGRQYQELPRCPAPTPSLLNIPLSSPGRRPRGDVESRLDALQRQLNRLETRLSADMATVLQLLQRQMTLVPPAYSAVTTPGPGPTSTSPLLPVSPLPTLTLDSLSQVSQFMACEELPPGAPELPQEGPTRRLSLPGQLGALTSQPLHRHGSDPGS
Chain of Cytochrome P450 1A2 (P05177 whole entry): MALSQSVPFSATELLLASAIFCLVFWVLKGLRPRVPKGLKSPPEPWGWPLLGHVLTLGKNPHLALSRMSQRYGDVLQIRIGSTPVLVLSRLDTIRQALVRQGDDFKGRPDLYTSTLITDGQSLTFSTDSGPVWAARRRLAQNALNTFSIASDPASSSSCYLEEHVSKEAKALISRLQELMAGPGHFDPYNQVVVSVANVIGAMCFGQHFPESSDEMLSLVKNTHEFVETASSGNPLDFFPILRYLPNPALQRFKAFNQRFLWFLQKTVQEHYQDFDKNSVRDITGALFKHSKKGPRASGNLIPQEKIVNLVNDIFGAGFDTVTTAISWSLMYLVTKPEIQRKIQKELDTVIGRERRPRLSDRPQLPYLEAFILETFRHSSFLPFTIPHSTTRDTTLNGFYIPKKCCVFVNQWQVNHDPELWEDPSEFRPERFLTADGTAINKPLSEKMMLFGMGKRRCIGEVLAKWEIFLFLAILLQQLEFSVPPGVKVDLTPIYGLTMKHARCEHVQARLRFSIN
Chain of Cytochrome P450 2D6 (P10635 whole entry): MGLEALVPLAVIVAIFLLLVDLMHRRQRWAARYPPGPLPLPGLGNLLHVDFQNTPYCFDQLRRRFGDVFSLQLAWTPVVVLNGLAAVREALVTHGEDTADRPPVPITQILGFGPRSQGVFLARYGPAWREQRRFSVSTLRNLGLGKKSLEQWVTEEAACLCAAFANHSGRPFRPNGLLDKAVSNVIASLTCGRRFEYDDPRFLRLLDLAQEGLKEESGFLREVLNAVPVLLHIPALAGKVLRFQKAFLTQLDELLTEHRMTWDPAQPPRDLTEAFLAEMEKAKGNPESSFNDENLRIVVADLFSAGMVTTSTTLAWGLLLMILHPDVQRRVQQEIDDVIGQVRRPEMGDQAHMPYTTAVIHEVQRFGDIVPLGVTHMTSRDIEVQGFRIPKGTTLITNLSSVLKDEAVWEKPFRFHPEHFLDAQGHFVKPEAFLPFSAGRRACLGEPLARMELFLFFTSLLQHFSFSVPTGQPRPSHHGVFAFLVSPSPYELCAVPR
Chain of Cytochrome P450 2C9 (P11712 whole entry): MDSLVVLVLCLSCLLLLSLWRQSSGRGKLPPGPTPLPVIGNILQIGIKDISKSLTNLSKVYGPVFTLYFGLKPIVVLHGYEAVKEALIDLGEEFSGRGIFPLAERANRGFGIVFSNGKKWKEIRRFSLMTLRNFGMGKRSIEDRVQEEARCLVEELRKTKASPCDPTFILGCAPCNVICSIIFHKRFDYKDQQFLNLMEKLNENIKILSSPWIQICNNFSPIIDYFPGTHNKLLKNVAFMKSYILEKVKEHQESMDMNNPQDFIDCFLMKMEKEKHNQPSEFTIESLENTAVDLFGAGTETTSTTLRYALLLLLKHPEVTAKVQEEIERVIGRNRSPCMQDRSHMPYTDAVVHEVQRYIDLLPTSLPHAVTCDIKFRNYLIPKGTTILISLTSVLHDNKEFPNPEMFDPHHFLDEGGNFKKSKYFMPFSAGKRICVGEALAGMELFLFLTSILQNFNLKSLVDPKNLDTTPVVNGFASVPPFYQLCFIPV
Chain of C-C chemokine receptor type 2 (Homo sapiens) (P41597 whole entry, looked up): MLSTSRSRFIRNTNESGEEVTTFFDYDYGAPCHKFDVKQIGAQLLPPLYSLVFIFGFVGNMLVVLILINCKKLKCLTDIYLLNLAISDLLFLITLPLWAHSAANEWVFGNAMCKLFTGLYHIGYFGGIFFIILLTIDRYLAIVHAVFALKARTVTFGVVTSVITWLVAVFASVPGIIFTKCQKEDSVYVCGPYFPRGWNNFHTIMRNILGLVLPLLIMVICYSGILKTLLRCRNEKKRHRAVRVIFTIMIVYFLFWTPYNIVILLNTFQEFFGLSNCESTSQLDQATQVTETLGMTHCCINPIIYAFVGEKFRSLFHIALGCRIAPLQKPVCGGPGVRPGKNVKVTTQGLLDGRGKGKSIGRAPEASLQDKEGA

SMILES: COc1cc(N2CCN(C(=O)Cn3nc(C(F)(F)F)c(Cl)c3C)CC2)ccc1Cl
- inhibition [1]: inactive
- inhibition [2]: inactive
- inhibition [3]: inactive
- inhibition [4]: inactive
- IC50 [5]: > 10 µM
- inhibition [6]: inactive
- inhibition [7]: inactive
- IC50 [8]: > 10 µM
- inhibition [9]: inactive
- IC50 [10]: 16 µM
- half-life [11]: 13.4 h
- inhibition [12]: inactive
- Activity [13]: Non-toxic
- IC50 [14]: > 10 µM
- inhibition [15]: inactive
- Activity [16]: inactive
